Source: patent publication US10238761B1, “Method and an integrated device for an area decontamination process” (NANOMIST SYSTEMS, LLC, priority 2013, dated 2019)
Read-outs that look alike come from different tables or passages of the source.

Test system: G. Stearothermophilus
Experimental: Tests were conducted in a 36 m^3 room without carpet (i.e., with tiled floor) and also in a 110 m^3 room with wall-to-wall carpet and configured to simulate a larger room with an attached bathroom with a door opening. Biological indicator (BI) test disks inoculated with 4-log, 5-log and 6-log populations of G. Stearothermophilus prepared by Mesa Labs were used.
BI test disks were placed at various locations within the room and doors and windows and other ventilation to the room was closed. Room temperature was not intentionally controlled, but was maintained at between about 22° C. and 26° C. The test area was pre-conditioned to a relative humidity of about 50%. A predetermined amount of biocide, a 35% hydrogen peroxide vapor, was rapidly injected into the room, with the rate of injection being about 50 g per minute or producing about 17.5 g of HP vapor per minute. The “inactivation time” or time from the initiation of the biocide injection through the residence time was a total of about 10 minutes. The room was then aerated until the concentration of biocide dropped to about 1 ppm. The overall cycle time was then calculated as the time for biocide injection, biocide contact or inactivation time, and the aeration time.

## OO [35% HP solution, hydrogen peroxide]
Test 3: 36 m^3 room, injected mass 2.4 g/m^3, HP mass 86.4 g, injection time 12.7 min, injection rate 6.8 g/min (0.19 g/min/m3) of HP
  Kill Efficiency: 5-log
Test 4: 36 m^3 room, injected mass 2.4 g/m^3, HP mass 86.4 g, injection time 8.3 min, injection rate 10.4 g/min (0.29 g/min/m3) of HP
  Kill Efficiency: 6-log
Test 7: 36 m^3 room, injected mass 2 g/m^3, HP mass 72 g, injection time 12 min, injection rate 6.0 g/min (0.17 g/min/m3) of HP
  Kill Efficiency: 5-log
Test 8: 36 m^3 room, injected mass 2 g/m^3, HP mass 72 g, injection time 6.5 min, injection rate 11.1 g/min (0.31 g/min/m3) of HP
  Kill Efficiency: 6-log
Test 9: 36 m^3 room, injected mass 2 g/m^3, HP mass 72.7 g, injection time 9.6 min, injection rate 7.6 g/min (0.21 g/min/m3) of HP
  Kill Efficiency: 5-log
Test 10: 36 m^3 room, injected mass 2 g/m^3, HP mass 73.1 g, injection time 6.5 min, injection rate 11.2 g/min (0.31 g/min/m3) of HP
  Kill Efficiency: 6-log
Test 11: 36 m^3 room, injected mass 2.2 g/m^3, HP mass 79.6 g, injection time 13 min, injection rate 6.1 g/min (0.17 g/min/m3) of HP
  Kill Efficiency: 5-log
Test 12: 36 m^3 room, injected mass 2.1 g/m^3, HP mass 74.9 g, injection time 4.3 min, injection rate 17.4 g/min (0.48 g/min/m3) of HP
  Kill Efficiency: 6-log
Test A: 36-m^3 room, tile, injected mass 0.6 g/m^3, HP mass 22 g, injection rate 11.4 g/min, injection time 1.8 min, residence time 8.2 min
  Kill Efficiency: 4-log
Test B: 36-m^3 room, tile, injected mass 0.7 g/m^3, HP mass 26 g, injection rate 11.0 g/min, injection time 2.4 min, residence time 7.6 min
  Kill Efficiency: 5-log
Test C: 36-m^3 room, tile, injected mass 1.7 g/m^3, HP mass 59 g, injection rate 12.3 g/min, injection time 4.8 min, residence time 5.2 min
  Kill Efficiency: 6-log
Test D: 100-m^3 room, carpet, second doorway with non-line-of-sight BI, injected mass 0.8 g/m^3, HP mass 91 g, injection rate 13.0 g/min, injection time 7.0 min, residence time 3.0 min
  Kill Efficiency: 5-log
Test E: 100-m^3 room, carpet, second doorway with non-line-of-sight BI, injected mass 1.8 g/m^3, HP mass 201 g, injection rate 21.1 g/min, injection time 9.5 min, residence time 0.5 min
  Kill Efficiency: 6-log
